{"source": "patent US8168779B2", "about": "“Anhydrous crystalline β-maltose, its preparation and uses” (priority 2006, dated 2012)", "key": {"[1]": {"assay": "Hygroscopicity test (moisture content under controlled relative humidity)", "assay_type": "physicochemical", "conditions": "27° C., listed as AC α-Mal (Control 2)", "procedure": "Moisture contents of the samples at respective periods were measured based on the change of weight from the start of the test. The moisture contents of the samples at the start of the test were measured by Karl Fischer's method."}, "[2]": {"assay": "Deionized water-solidifying test (base for solidifying moisture-containing compositions)", "assay_type": "physicochemical", "conditions": "25° C.; for (Appearance) / Condition: after 20 hours from the dissolution; for Time of solidification completed / Time of solidification started: monitored for 2 hours", "text": "After completing the dissolution, each test solution was further stirred for four minutes and then the stirring was stopped. Successively, each test solution was left to stand and a solidification of the test solution by the crystallization of hydrous crystalline maltose was monitored macroscopically for two hours. In the cases of the solidified samples, the time of starting the crystallization and that of completing the solidification were checked. (However, the test solution dissolving 18.8 g of crystal was stopped stirring at three minutes after the dissolution because the crystallization of hydrous crystalline maltose was started immediately.) After monitoring macroscopically for two hours, each vessel containing any one of the sample solutions was closed and further left to stand for 18 hours. Then, the condition (appearance) of the test samples after 20 hours from the dissolution was monitored macroscopically and evaluated by the following three phases: (1) clear solution; (2) clouded solution; and (3) solidified. The samples prepared by using 10.0 g, 11.5 g, 13.3 g, or 18.8 g of the anhydrous crystalline α-maltose used in Example 2, as a substitute of the test samples, were treated by the same procedure as controls. The test was carried out in a room where a temperature was kept at 25° C. The results of each sample after 2 and 20 hours are shown in Table 5 and FIG. 13, and Table 6 and FIG. 14, respectively."}, "[3]": {"conditions": "mercury filling method"}, "[4]": {"assay": "Powderizing test by admixing deionized water", "assay_type": "physicochemical", "conditions": "25° C., listed as Anhydrous crystalline α-maltose (Control)", "procedure": "(§1) The usefulness of the crystal was judged by the amount of deionized water added to the limit of keeping the powder form. The form of the powder was evaluated by the following four phases: (1) powder; (2) lump (it keeps a powder form while it comprises lumps); (3) cake; and (4) paste. As a control, the anhydrous crystalline α-maltose used in Example 2 was treated by the same procedure. The test was carried out in a room where the temperature was kept at 25° C. The results of the test and the form of each sample after admixing with 1.25 ml of deionized water are shown in Table 7 and FIG. 15, respectively."}, "[5]": {"assay": "Specific surface area by nitrogen adsorption isotherms (BET)", "assay_type": "physicochemical", "conditions": "BET method, listed as anhydrous crystalline α-maltose of Control 2", "procedure": "About 3 g of the anhydrous crystalline β-maltose, obtained in Example 1, was dried in the apparatus under a reduced pressure at about 40° C. for about 15 hours as a pretreatment, and then used for the measurement of specific surface area by the nitrogen adsorption isotherms. The result was analyzed by conventional BET (Brunnauer, Emmet, and Teller) method."}, "[6]": {"assay": "Powderizing test by admixing dehydrated ethanol", "assay_type": "physicochemical", "conditions": "listed as Anhydrous crystalline α-maltose (Control)", "procedure": "as §1, with “respectively. […] The results of the test and the form of each sample after admixing with 6 ml of dehydrated ethanol are shown in Table 8 and FIG. 16, respectively.” for “respectively.”"}, "[7]": {"conditions": "10.0 g dissolved in 10 g deionized water (50.0%)"}, "[8]": {"conditions": "10.0 g dissolved in 10 g deionized water (calc. conc. 50.0%)"}, "[9]": {"conditions": "11.5 g dissolved in 10 g deionized water (53.5%)"}, "[10]": {"conditions": "11.5 g dissolved in 10 g deionized water (calc. conc. 53.5%)"}, "[11]": {"conditions": "13.3 g dissolved in 10 g deionized water (57.0%)"}, "[12]": {"conditions": "13.3 g dissolved in 10 g deionized water (calc. conc. 57.0%)"}, "[13]": {"conditions": "18.8 g dissolved in 10 g deionized water (calc. conc. 65.0%)"}, "[14]": {"conditions": "control values originate from space between crystal particles, not pores"}}, "data": [{"smiles": "OC[C@H]1O[C@H](O[C@H]2[C@H](O)[C@@H](O)[C@H](O)O[C@@H]2CO)[C@H](O)[C@@H](O)[C@@H]1O", "note": "[anhydrous crystalline α-maltose]", "values": [{"measurement": "Moisture content of samples", "setting": "[1]; RH 47% (lithium nitrate), 0 hour (start, Karl Fischer)", "value": "0.74 %, w/w"}, {"measurement": "Moisture content of samples", "setting": "[1]; RH 47% (lithium nitrate), 2 hours", "value": "0.70 %, w/w"}, {"measurement": "Moisture content of samples", "setting": "[1]; RH 47% (lithium nitrate), 4 hours", "value": "0.70 %, w/w"}, {"measurement": "Moisture content of samples", "setting": "[1]; RH 47% (lithium nitrate), 24 hours", "value": "0.65 %, w/w"}, {"measurement": "Moisture content of samples", "setting": "[1]; RH 47% (lithium nitrate), 96 hours", "value": "0.71 %, w/w"}, {"measurement": "Moisture content of samples", "setting": "[1]; RH 47% (lithium nitrate), 192 hours", "value": "0.70 %, w/w"}, {"measurement": "Moisture content of samples", "setting": "[1]; RH 58% (sodium bromide), 0 hour (start, Karl Fischer)", "value": "0.74 %, w/w"}, {"measurement": "Moisture content of samples", "setting": "[1]; RH 58% (sodium bromide), 2 hours", "value": "0.74 %, w/w"}, {"measurement": "Moisture content of samples", "setting": "[1]; RH 58% (sodium bromide), 4 hours", "value": "0.76 %, w/w"}, {"measurement": "Moisture content of samples", "setting": "[1]; RH 58% (sodium bromide), 6 hours", "value": "0.80 %, w/w"}, {"measurement": "Moisture content of samples", "setting": "[1]; RH 58% (sodium bromide), 8 hours", "value": "0.79 %, w/w"}, {"measurement": "Moisture content of samples", "setting": "[1]; RH 58% (sodium bromide), 24 hours", "value": "0.83 %, w/w"}, {"measurement": "Moisture content of samples", "setting": "[1]; RH 58% (sodium bromide), 96 hours", "value": "0.98 %, w/w"}, {"measurement": "Moisture content of samples", "setting": "[1]; RH 58% (sodium bromide), 192 hours", "value": "0.91 %, w/w"}, {"measurement": "Moisture content of samples", "setting": "[1]; RH 75% (sodium chloride), 0 hour (start, Karl Fischer)", "value": "0.74 %, w/w"}, {"measurement": "Moisture content of samples", "setting": "[1]; RH 75% (sodium chloride), 2 hours", "value": "1.18 %, w/w"}, {"measurement": "Moisture content of samples", "setting": "[1]; RH 75% (sodium chloride), 4 hours", "value": "2.44 %, w/w"}, {"measurement": "Moisture content of samples", "setting": "[1]; RH 75% (sodium chloride), 6 hours", "value": "2.88 %, w/w"}, {"measurement": "Moisture content of samples", "setting": "[1]; RH 75% (sodium chloride), 8 hours", "value": "3.14 %, w/w"}, {"measurement": "Moisture content of samples", "setting": "[1]; RH 75% (sodium chloride), 24 hours", "value": "3.84 %, w/w"}, {"measurement": "Moisture content of samples", "setting": "[1]; RH 75% (sodium chloride), 96 hours", "value": "3.85 %, w/w"}, {"measurement": "Moisture content of samples", "setting": "[1]; RH 75% (sodium chloride), 192 hours", "value": "4.49 %, w/w"}, {"measurement": "Moisture content of samples", "setting": "[1]; RH 90% (barium chloride), 0 hour (start, Karl Fischer)", "value": "0.74 %, w/w"}, {"measurement": "Moisture content of samples", "setting": "[1]; RH 90% (barium chloride), 2 hours", "value": "1.79 %, w/w"}, {"measurement": "Moisture content of samples", "setting": "[1]; RH 90% (barium chloride), 4 hours", "value": "4.30 %, w/w"}, {"measurement": "Moisture content of samples", "setting": "[1]; RH 90% (barium chloride), 6 hours", "value": "6.29 %, w/w"}, {"measurement": "Moisture content of samples", "setting": "[1]; RH 90% (barium chloride), 8 hours", "value": "7.82 %, w/w"}, {"measurement": "Moisture content of samples", "setting": "[1]; RH 90% (barium chloride), 24 hours", "value": "15.78 %, w/w"}, {"measurement": "Moisture content of samples", "setting": "[1]; RH 90% (barium chloride), 96 hours", "value": "17.77 %, w/w"}, {"measurement": "Moisture content of samples", "setting": "[1]; RH 90% (barium chloride), 192 hours", "value": "14.38 %, w/w"}, {"measurement": "(Appearance)", "setting": "[2]; [7]", "value": "(Clear solution)"}, {"measurement": "Condition", "setting": "[2]; [7]", "value": "Not solidified"}, {"measurement": "Time of solidification completed", "setting": "[2]; [8]", "value": "Not solidified"}, {"measurement": "Time of solidification started", "setting": "[2]; [8]", "value": "Not solidified"}, {"measurement": "(Appearance)", "setting": "[2]; [9]", "value": "(Clear solution)"}, {"measurement": "Condition", "setting": "[2]; [9]", "value": "Not solidified"}, {"measurement": "Time of solidification completed", "setting": "[2]; [10]", "value": "Not solidified"}, {"measurement": "Time of solidification started", "setting": "[2]; [10]", "value": "Not solidified"}, {"measurement": "(Appearance)", "setting": "[2]; [11]", "value": "(Clouded solution)"}, {"measurement": "Condition", "setting": "[2]; [11]", "value": "Not solidified"}, {"measurement": "Time of solidification completed", "setting": "[2]; [12]", "value": "Not solidified"}, {"measurement": "Time of solidification started", "setting": "[2]; [12]", "value": "Not solidified"}, {"measurement": "Condition", "setting": "[2]; 18.8 g dissolved in 10 g deionized water (65.0%)", "value": "Solidified"}, {"measurement": "Time of solidification completed", "setting": "[2]; [13]", "value": "Not solidified"}, {"measurement": "Time of solidification started", "setting": "[2]; [13]", "value": "Not solidified"}, {"measurement": "Intrusion volume", "setting": "[3]; initial pressure 15 kPa", "value": "(No pore)"}, {"measurement": "Median pore diameter", "setting": "[3]; [14]", "value": 13.00, "unit": "μm"}, {"measurement": "Mode pore diameter", "setting": "[3]; [14]", "value": 20.70, "unit": "μm"}, {"measurement": "Form of the powder after admixing deionized water", "setting": "[4]; 10 g crystal + 0.75 ml water (moisture content 7.0%, w/w)", "value": "Lump form"}, {"measurement": "Form of the powder after admixing deionized water", "setting": "[4]; 10 g crystal + 1.00 ml water (moisture content 9.1%, w/w)", "value": "Cake form"}, {"measurement": "Form of the powder after admixing deionized water", "setting": "[4]; 10 g crystal + 1.25 ml water (moisture content 11.1%, w/w)", "value": "Paste form"}, {"measurement": "Specific surface area", "setting": "[5]", "value": 0.48, "unit": "m^2/g"}, {"measurement": "Form of the powder after admixing dehydrated ethanol", "setting": "[6]; 10 g crystal + 3.5 ml ethanol (27.5 v/w %)", "value": "Lump form"}, {"measurement": "Form of the powder after admixing dehydrated ethanol", "setting": "[6]; 10 g crystal + 4.0 ml ethanol (30.5 v/w %)", "value": "Cake form"}, {"measurement": "Form of the powder after admixing dehydrated ethanol", "setting": "[6]; 10 g crystal + 4.5 ml ethanol (33.3 v/w %)", "value": "Cake form"}, {"measurement": "Form of the powder after admixing dehydrated ethanol", "setting": "[6]; 10 g crystal + 5.0 ml ethanol (36.0 v/w %)", "value": "Cake form"}, {"measurement": "Form of the powder after admixing dehydrated ethanol", "setting": "[6]; 10 g crystal + 5.5 ml ethanol (38.5 v/w %)", "value": "Paste form"}, {"measurement": "Form of the powder after admixing dehydrated ethanol", "setting": "[6]; 10 g crystal + 6.0 ml ethanol (40.9 v/w %)", "value": "Paste form"}]}]}
